From the NIST ThermoML archive (doi:10.1021/acs.jced.5b00813)
Numbers after ± are expanded uncertainties.

Columns and labels:
[1] = xn = mol fraction of the nth substance listed; conditions: 298.15 K, 100 kPa, Liquid, Vibrating tube method
[2] = excess molar enthalpy (molar enthalpy of mixing); xn = mol fraction of the nth substance listed; conditions: 298.15 K, 100 kPa, Liquid, Calvet calorimetry
[3] = 298.15 K; 100 kPa; Liquid; Vibrating tube method
[4] = refractive index (Na D-line) (dimensionless); conditions: 298.15 K; 101.33 kPa; Liquid; Standard Abbe refractometry

CCCCC(=O)OC [methyl pentanoate] + CC(C)CC(C)(C)C
Conditions	excess molar enthalpy [kcal/mol]	mass density [kg/m3]
[1], x2 = 0	–	884.84 ± 1
[1], x2 = 0.0537	–	871.44 ± 1
[1], x2 = 0.1588	–	846.38 ± 1
[1], x2 = 0.2505	–	825.53 ± 1
[1], x2 = 0.3544	–	803.1 ± 1
[1], x2 = 0.4518	–	783.06 ± 1
[1], x2 = 0.4984	–	773.84 ± 1
[1], x2 = 0.5417	–	765.44 ± 1
[1], x2 = 0.642	–	746.75 ± 1
[1], x2 = 0.6854	–	738.97 ± 1
[1], x2 = 0.7425	–	728.98 ± 1
[1], x2 = 0.7967	–	719.79 ± 1
[1], x2 = 0.8148	–	716.75 ± 1
[1], x2 = 0.8415	–	712.32 ± 1
[1], x2 = 0.8779	–	706.53 ± 1
[1], x2 = 0.8999	–	702.99 ± 1
[1], x2 = 0.9409	–	696.52 ± 1
[2], x2 = 0.0438	0.0344 ± 0.000956	–
[2], x2 = 0.0963	0.0672 ± 0.00143	–
[2], x2 = 0.1589	0.105 ± 0.00239	–
[2], x2 = 0.2206	0.137 ± 0.00287	–
[2], x2 = 0.2692	0.159 ± 0.00335	–
[2], x2 = 0.3311	0.177 ± 0.00382	–
[2], x2 = 0.3825	0.191 ± 0.00406	–
[2], x2 = 0.436	0.201 ± 0.0043	–
[2], x2 = 0.4818	0.207 ± 0.00454	–
[2], x2 = 0.5239	0.211 ± 0.00454	–
[2], x2 = 0.5638	0.212 ± 0.00454	–
[2], x2 = 0.5679	0.211 ± 0.00454	–
[2], x2 = 0.6024	0.208 ± 0.00454	–
[2], x2 = 0.6258	0.205 ± 0.0043	–
[2], x2 = 0.7031	0.189 ± 0.00406	–
[2], x2 = 0.7813	0.157 ± 0.00335	–
[2], x2 = 0.8452	0.121 ± 0.00263	–
[2], x2 = 0.9243	0.071 ± 0.00167	–

CCCC(=O)OC [methyl butanoate]
Conditions	mass density [kg/m3]	refractive index
[3]	892.34 ± 1	–
[4]	–	1.3845 ± 0.0005

CCCCC(=O)OC [methyl pentanoate] + CCCCCCCC
Conditions	excess molar enthalpy [kcal/mol]	mass density [kg/m3]
[1], x2 = 0	–	884.84 ± 1
[1], x2 = 0.0514	–	872.35 ± 1
[1], x2 = 0.1005	–	860.71 ± 1
[1], x2 = 0.161	–	846.85 ± 1
[1], x2 = 0.2134	–	835.46 ± 1
[1], x2 = 0.2601	–	825.47 ± 1
[1], x2 = 0.3084	–	815.53 ± 1
[1], x2 = 0.3625	–	804.47 ± 1
[1], x2 = 0.4427	–	788.93 ± 1
[1], x2 = 0.4558	–	786.45 ± 1
[1], x2 = 0.5104	–	776.34 ± 1
[1], x2 = 0.5504	–	769.1 ± 1
[1], x2 = 0.6116	–	758.45 ± 1
[1], x2 = 0.6541	–	751.22 ± 1
[1], x2 = 0.7081	–	742.25 ± 1
[1], x2 = 0.7535	–	734.86 ± 1
[1], x2 = 0.8013	–	727.38 ± 1
[1], x2 = 0.8518	–	719.71 ± 1
[1], x2 = 0.9059	–	711.73 ± 1
[1], x2 = 0.9521	–	705.03 ± 1
[2], x2 = 0.0427	0.0387 ± 0.000956	–
[2], x2 = 0.0951	0.0805 ± 0.00191	–
[2], x2 = 0.1523	0.122 ± 0.00263	–
[2], x2 = 0.2098	0.158 ± 0.00335	–
[2], x2 = 0.2677	0.187 ± 0.00406	–
[2], x2 = 0.3234	0.211 ± 0.00454	–
[2], x2 = 0.377	0.228 ± 0.00502	–
[2], x2 = 0.4266	0.24 ± 0.00526	–
[2], x2 = 0.4619	0.249 ± 0.00526	–
[2], x2 = 0.4695	0.249 ± 0.00526	–
[2], x2 = 0.5113	0.252 ± 0.0055	–
[2], x2 = 0.5126	0.25 ± 0.0055	–
[2], x2 = 0.5411	0.249 ± 0.00526	–
[2], x2 = 0.5701	0.248 ± 0.00526	–
[2], x2 = 0.6364	0.236 ± 0.00502	–
[2], x2 = 0.709	0.212 ± 0.00454	–
[2], x2 = 0.7745	0.181 ± 0.00382	–
[2], x2 = 0.8541	0.131 ± 0.00287	–
[2], x2 = 0.9325	0.0547 ± 0.0012	–

CC(C)CC(C)(C)C [2,2,4-trimethylpentane] + CCCC(=O)OC
Conditions	mass density [kg/m3]
[1], x1 = 1	687.75 ± 1

COC(C)=O [methyl ethanoate] + CCCC(=O)OC
Conditions	mass density [kg/m3]
[1], x2 = 0	927.16 ± 1

COC(C)=O [methyl ethanoate] + CCCCC(=O)OC
Conditions	mass density [kg/m3]
[1], x2 = 0	927.16 ± 1

COC(C)=O [methyl ethanoate]
Conditions	mass density [kg/m3]	refractive index
[3]	927.16 ± 1	–
[4]	–	1.3588 ± 0.0005

CCCC(=O)OC [methyl butanoate] + CCCCCCCC
Conditions	excess molar enthalpy [kcal/mol]	mass density [kg/m3]
[1], x2 = 0	–	892.34 ± 1
[1], x2 = 0.059	–	875.04 ± 1
[1], x2 = 0.1109	–	860.65 ± 1
[1], x2 = 0.152	–	849.82 ± 1
[1], x2 = 0.2051	–	836.56 ± 1
[1], x2 = 0.2557	–	824.52 ± 1
[1], x2 = 0.2992	–	814.89 ± 1
[1], x2 = 0.3501	–	803.53 ± 1
[1], x2 = 0.4045	–	792.24 ± 1
[1], x2 = 0.4516	–	782.9 ± 1
[1], x2 = 0.4978	–	774.12 ± 1
[1], x2 = 0.5469	–	765.18 ± 1
[1], x2 = 0.5862	–	758.27 ± 1
[1], x2 = 0.6551	–	746.75 ± 1
[1], x2 = 0.6989	–	739.74 ± 1
[1], x2 = 0.7471	–	732.42 ± 1
[1], x2 = 0.7931	–	725.7 ± 1
[1], x2 = 0.8428	–	718.65 ± 1
[1], x2 = 0.9009	–	710.74 ± 1
[1], x2 = 0.9367	–	706.37 ± 1
[1], x2 = 0.9651	–	702.84 ± 1
[1], x2 = 0.9655	–	702.79 ± 1
[2], x2 = 0.0438	0.0509 ± 0.0012	–
[2], x2 = 0.0922	0.0987 ± 0.00215	–
[2], x2 = 0.144	0.144 ± 0.00311	–
[2], x2 = 0.1978	0.184 ± 0.00406	–
[2], x2 = 0.2521	0.218 ± 0.00478	–
[2], x2 = 0.3043	0.244 ± 0.00526	–
[2], x2 = 0.3543	0.264 ± 0.00574	–
[2], x2 = 0.403	0.278 ± 0.00598	–
[2], x2 = 0.4321	0.286 ± 0.00621	–
[2], x2 = 0.4779	0.291 ± 0.00621	–
[2], x2 = 0.5368	0.288 ± 0.00621	–
[2], x2 = 0.6033	0.276 ± 0.00598	–
[2], x2 = 0.676	0.251 ± 0.0055	–
[2], x2 = 0.757	0.21 ± 0.00454	–
[2], x2 = 0.8413	0.153 ± 0.00335	–
[2], x2 = 0.9231	0.0865 ± 0.00191	–

CCCCCCCC [octane] + CCCC(=O)OC
Conditions	mass density [kg/m3]
[1], x1 = 1	698.58 ± 1

COC(C)=O [methyl ethanoate] + CC(C)CC(C)(C)C
Conditions	excess molar enthalpy [kcal/mol]	mass density [kg/m3]
[1], x2 = 0	–	927.16 ± 1
[1], x2 = 0.0375	–	906.89 ± 1
[1], x2 = 0.1025	–	876.58 ± 1
[1], x2 = 0.1652	–	851.09 ± 1
[1], x2 = 0.1775	–	846.59 ± 1
[1], x2 = 0.2189	–	832.07 ± 1
[1], x2 = 0.2615	–	818.03 ± 1
[1], x2 = 0.302	–	805.95 ± 1
[1], x2 = 0.3902	–	782.41 ± 1
[1], x2 = 0.4061	–	778.52 ± 1
[1], x2 = 0.4249	–	774.09 ± 1
[1], x2 = 0.4627	–	765.54 ± 1
[1], x2 = 0.5239	–	752.92 ± 1
[1], x2 = 0.5411	–	749.57 ± 1
[1], x2 = 0.61	–	737.18 ± 1
[1], x2 = 0.6612	–	728.76 ± 1
[1], x2 = 0.6786	–	726.1 ± 1
[1], x2 = 0.7359	–	717.6 ± 1
[1], x2 = 0.8086	–	708.07 ± 1
[1], x2 = 0.8803	–	699.86 ± 1
[1], x2 = 0.9521	–	692.07 ± 1
[2], x2 = 0.02	0.037 ± 0.0012	–
[2], x2 = 0.0525	0.0989 ± 0.00239	–
[2], x2 = 0.0892	0.158 ± 0.00335	–
[2], x2 = 0.1241	0.205 ± 0.00454	–
[2], x2 = 0.1687	0.25 ± 0.0055	–
[2], x2 = 0.2084	0.291 ± 0.00621	–
[2], x2 = 0.256	0.331 ± 0.00717	–
[2], x2 = 0.3079	0.369 ± 0.00789	–
[2], x2 = 0.3608	0.397 ± 0.00837	–
[2], x2 = 0.3915	0.409 ± 0.00884	–
[2], x2 = 0.4323	0.421 ± 0.00908	–
[2], x2 = 0.4764	0.428 ± 0.00908	–
[2], x2 = 0.5406	0.42 ± 0.00908	–
[2], x2 = 0.6163	0.393 ± 0.00837	–
[2], x2 = 0.6888	0.348 ± 0.00741	–
[2], x2 = 0.7833	0.275 ± 0.00598	–
[2], x2 = 0.8597	0.189 ± 0.00406	–
[2], x2 = 0.9422	0.0851 ± 0.00191	–
